Reference: patent US8785442B2, “Compound as antagonist of lysophosphatidic acid receptor, composition, and use thereof” (Curegenix, Inc., priority 2011, dated 2014)

Columns and labels:
[1] = target: T1, human LPA1 receptor (Homo sapiens, UniProt Q92633); assay: calcium flux assay (LPA Receptor Assays); type: cell-based
T1 construct: The 1.1 kb cDNA encoding the full-length coding region of human LPA1 was subcloned into the pRK5; expressed in transfected cells; host or cells: HEK293 or CHO cells
Procedure: A cDNA encoding the human LPA1 receptor was cloned by PCR from cDNA clone obtained from commercial sources. The nucleotide sequence was determined by sequencing and confirmed to be identical to the published human LPA1 sequence (An, 1997). The 1.1 kb cDNA encoding the full-length coding region of human LPA1 was subcloned into the pRK5 […] expression vector. Transfection of the cDNA into HEK293 or CHO cells is performed by using LipofectAmine 2000 (Invitrogen, USA). The full-length cDNA fragments for human LPA2 and LPA3 were obtained by PCR similarly and subcloned into pCDNA3.1 expression vector.
Transfected cells were cultured and subjected to LPA-induced SRE-luciferase reporter gene assay by using generally described methods (An, 1997). Intact HEK293 or CHO cells expressing the recombinant human LPA1 receptor were subjected to a [3H]-LPA ligand binding assay as described (An, 1998).
All compounds presented in the patent have IC50<20 μM in the calcium flux assay.

[2] = tested on: breast cancer cells; settings: animal models (Boucharaba, 2006); cited from earlier work
[3] = tested on: highly peritoneal metastatic pancreatic cancer cell line; settings: highly peritoneal metastatic pancreatic cancer cell line (Yamada, 2004); cited from earlier work

T1 sequence (Q92633 whole entry): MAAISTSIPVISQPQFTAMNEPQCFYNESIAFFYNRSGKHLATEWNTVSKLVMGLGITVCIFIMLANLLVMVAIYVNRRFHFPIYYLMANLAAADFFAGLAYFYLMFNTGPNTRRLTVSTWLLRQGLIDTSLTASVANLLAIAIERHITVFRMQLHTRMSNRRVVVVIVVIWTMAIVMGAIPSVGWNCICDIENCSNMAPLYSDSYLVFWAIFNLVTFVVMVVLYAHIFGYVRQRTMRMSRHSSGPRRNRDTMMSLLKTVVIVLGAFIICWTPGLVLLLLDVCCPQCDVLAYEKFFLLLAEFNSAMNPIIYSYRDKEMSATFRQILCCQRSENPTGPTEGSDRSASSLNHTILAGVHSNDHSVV

SMILES	IC50 [1]	metastasis of breast cancer cells to bone [2]	LPA-induced and ascites-induced invasion activity [3]
Cc1noc(-c2ccc(CSCCC(=O)O)cc2)c1NC(=O)OC(C)c1ccccc1Cl (stereo not drawn) [Ki16425]	–	inhibited	blocked
Cc1noc(-c2ccc(NC(=O)C3CC3)cc2)c1NC(=O)OC(C)c1ccccc1Cl (stereo not drawn) [Compound 7, 1-(2-chlorophenyl)ethyl(5-(4-(cyclopropanecarboxamido)phenyl)-3-methylisoxazol-4-yl)carbamate]	1150 nM	–	–
Cc1noc(-c2ccc(NS(C)(=O)=O)cc2)c1NC(=O)O[C@H](C)c1ccccc1Cl [Compound 19, (R)-1-(2-chlorophenyl)ethyl(3-methyl-5-(4-(methylsulfonamido)phenyl)isoxazol-4-yl)carbamate]	55 nM	–	–
Cc1noc(-c2ccc(NC(=O)c3ccccc3)cc2)c1NC(=O)OC(C)c1ccccc1Cl (stereo not drawn) [Compound 16, 1-(2-chlorophenyl)ethyl(5-(4-benzamidophenyl)-3-methylisoxazol-4-yl)carbamate]	2200 nM	–	–
Cc1noc(-c2ccc3[nH]ncc3c2)c1NC(=O)OC(C)c1ccccc1Cl (stereo not drawn) [Compound 3, 1-(2-chlorophenyl)ethyl(5-(1H-indazol-5-yl)-3-methylisoxazol-4-yl)carbamate]	550 nM	–	–
Cc1noc(-c2ccc(NC(=O)CCC(=O)O)cc2)c1NC(=O)OC(C)c1ccccc1Cl (stereo not drawn) [Compound 12, 4-((4-(4-(((1-(2-chlorophenyl)ethoxy)carbonyl)amino)-3-methylisoxazol-5-yl)phenyl)amino)-4-oxobutanoic acid]	70 nM	–	–
Cc1noc(-c2ccc(NS(C)(=O)=O)cc2)c1NC(=O)OC(C)c1ccccc1Cl (stereo not drawn) [Compound 1, 1-(2-chlorophenyl)ethyl(3-methyl-5-(4-(methylsulfonamido)phenyl)isoxazol-4-yl)carbamate]	90 nM	–	–

Further lines, with some results ahead:

IC50 [1]	SMILES	metastasis of breast cancer cells to bone [2]	LPA-induced and ascites-induced invasion activity [3]
70 nM	Cc1noc(-c2ccc(NS(C)(=O)=O)cc2F)c1NC(=O)OC(C)c1ccccc1Cl (stereo not drawn) [Compound 32, 1-(2-chlorophenyl)ethyl(5-(2-fluoro-4-(methylsulfonamido)phenyl)-3-methylisoxazol-4-yl)carbamate]	–	–
60 nM	Cc1noc(-c2ccc(NS(C)(=O)=O)cc2)c1NC(=O)OC(C)c1ccc(F)cc1Cl (stereo not drawn) [Compound 42, 1-(2-chloro-4-fluorophenyl)ethyl(3-methyl-5-(4-(methylsulfonamido)phenyl)isoxazol-4-yl)carbamate]	–	–
110 nM	Cc1noc(-c2ccc(NS(=O)(=O)CCC(=O)O)cc2)c1NC(=O)OC(C)c1ccccc1Cl (stereo not drawn) [Compound 28, 3-(N-(4-(4-(((1-(2-chlorophenyl)ethoxy)carbonyl)amino)-3-methylisoxazol-5-yl)phenyl)sulfamoyl)propanoic acid]	–	–
70 nM	Cc1noc(-c2ccc(NC(=O)CCC(=O)O)cc2F)c1NC(=O)O[C@H](C)c1ccccc1Cl [Compound 50, (R)-4-((4-(4-(((1-(2-chlorophenyl)ethoxy)carbonyl)amino)-3-methylisoxazol-5-yl)-3-fluorophenyl)amino)-4-oxobutanoic acid]	–	–
